This is an account of results in ChEMBL document CHEMBL5726278, “Cytochrome P450 inhibitors and their method of use” (2017).

A short description of this experiment: Cyp21 Assay : Cyp21 assay protocol: AD293 cells that stably over-express recombinant CYP-21 were seeded in 96 well plates coated with poly D-lysine (10,000 cell per well) and incubated at 37° C. for 24 hours in Dulbecco's Modified Eagle Medium (DMEM) with Fetal Bovine Serum (FBS) that is stripped of hormones by charcoal treatment. The media is then removed, the cells are washed once with Phosphate buffer saline solution, and 50 μL Dulbecco's Modified Eagle Medium (DMEM) with Fetal Bovine Serum (FBS) that is stripped of hormones by charcoal treatment is added. Compounds of the disclosure are then added to the wells in eight concentration spanning 10 μM to 4.5 nM, and the plates are incubated for an additional 60 minutes at 37° C. 17α-OH Progesterone is then added (1.0 μM) and the plates are incubated for an additional 45 minutes at 37° C. After incubation, 50 uL of the supernatant (medium) is transferred into a fresh plate and 150 uL of an acetonitrile solution containing 200 ng/ml of Telmisartan is added. The sample is mixed and then placed in a centrifuge at 2000 rpm for 5 minutes. Particulars: AD293, 24 h.
Broadly, the IC50 is the point on the concentration scale where inhibition reaches its midpoint. Turning to `CS(=O)(=O)N1CCN(c2ccc(/C=C/c3cc(F)cc(Cn4ccnc4)c3)cc2)CC1`, the IC50 turned out to be 10000 nM. The figure for `CS(=O)(=O)N1CCN(c2ccc(/C=C/c3cc(Cl)cc(-c4ccncc4)c3)cc2)CC1` is 840 nM. The figure for `CS(=O)(=O)N1CCN(c2ccc(/C=C/c3cc(Cl)cc(Cn4ccnc4)c3)cc2)CC1` is 2200 nM. As to `CS(=O)(=O)N1CCN(c2ccc(/C=C/c3cc(F)cc(-c4ccncc4)c3)cc2)CC1`, the IC50 came out at 740 nM. Turning to `N=C(N)N1CCN(c2ccc(/C=C/c3cc(F)cc(Cn4ccnc4)c3)cc2)CC1`, the IC50 was 10000 nM.

As to `Clc1cc(/C=C/c2ccc(N3CCN(C4=NCCO4)CC3)cc2)cc(-c2ccncc2)c1`, the IC50 turned out to be 1200 nM. Regarding `CC(C)S(=O)(=O)N1CCN(c2ccc(/C=C/c3cc(Cl)cc(-c4ccncc4)c3)cc2)CC1`, the IC50 was determined as 565 nM. Take `CC(C)S(=O)(=O)N1CCN(c2ccc(/C=C/c3cc(F)cc(Cn4ccnc4)c3)cc2)CC1`: the IC50 was found to be 700 nM.

On to `Fc1cc(/C=C/c2ccc(N3CCN(C4=NCCCO4)CC3)cc2)cc(Cn2ccnc2)c1`, for which the IC50 was determined as 1000 nM. With `N=C(N)N1CCN(c2ccc(/C=C/c3cc(Cl)cc(Cn4ccnc4)c3)cc2)CC1` the figure was 10000 nM; with `N=C(N)N1CCN(c2ccc(/C=C/c3cc(F)cc(-c4ccncc4)c3)cc2)CC1`, 10000 nM; with `O=S(=O)(C1CC1)N1CCN(c2ccc(/C=C/c3cc(Cl)cc(-c4ccncc4)c3)cc2)CC1`, 416 nM. With `Clc1cc(/C=C/c2ccc(N3CCN(C4=NCCO4)CC3)cc2)cc(Cn2ccnc2)c1` the figure was 3500 nM. As for `Fc1cc(/C=C/c2ccc(N3CCN(C4=NCCO4)CC3)cc2)cc(Cn2ccnc2)c1`, the IC50 worked out at 10000 nM. In the case of `Fc1cc(/C=C/c2ccc(N3CCN(C4=NCCO4)CC3)cc2)cc(-c2ccncc2)c1`, the IC50 turned out to be 1200 nM. As to `N=C(N)N1CCN(c2ccc(/C=C/c3cc(Cl)cc(-c4ccncc4)c3)cc2)CC1`, the IC50 turned out to be 10000 nM.

Take `[C-]#[N+]CS(=O)(=O)N1CCN(c2ccc(/C=C/c3cc(F)cc(Cn4ccnc4)c3)cc2)CC1`: the IC50 is 10000 nM.
